The values that follow come from ChEMBL document CHEMBL3137667, “[Drug-induced liver injury; fourteenth updated edition of the bibliographic database of liver injuries and related drugs]” (Gastroenterol Clin Biol, 2004).

The conditions of data set [1]: human.
The conditions of data set [2]: human. The source holds these as a separate data set.
The conditions of data set [3]: human, serum.
The conditions of data set [4]: human, serum, 4383 h.
The conditions of data set [5]: human. The source holds these as a separate data set.
The conditions of data set [6]: human. This is another data set of the same source.
The nature of data set [7]: Highest frequency of moderate liver toxicity observed during clinical trials, expressed as a percentage. [column '% BIOL' in source]. The note with it: human.
The conditions of data set [8]: human. The source holds these as a separate data set.
For data set [9] the following is noted: human. This is another data set of the same source.
For data set [10] the following is noted: human. This is another data set of the same source.
The conditions of data set [11]: human, serum. The source holds these as a separate data set.
A short description of data set [12]: Times to onset, minimal and maximal, observed in the indexed observations. [column 'DELAI' in source]. The conditions noted are these: human.
Data set [13] can be described thus: Highest frequency of acute liver toxicity observed during clinical trials, expressed as a percentage. [column '% AIGUE' in source]. The conditions noted are these: human.
The conditions of data set [14]: human. The source holds these as a separate data set.
For data set [15] the following is noted: human. This is another data set of the same source.
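Throughout, for Hepatotoxicity (association with vascular disease): count of indexed literature references reporting vascular liver injury in humans, e.g. peliosis hepatitis, hepatic veno-occlusive disease or Budd-Chiari syndrome.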
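Throughout, for Hepatotoxicity (benign tumour): value is a count of indexed literature references citing a benign tumour confirmed by histopathology.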
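Throughout, for Hepatotoxicity (choleostasis): human cholestatic liver injury, shown by histopathology or by peak ALT or AST elevation over alkaline phosphatase ratio below 2, value counts indexed literature reports.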
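Throughout, for Hepatotoxicity (chronic liver disease): chronic liver injury confirmed by histopathology or persistently raised serum aminotransferase activity beyond 6 months, value given as the count of indexed literature references.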
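Throughout, for Hepatotoxicity (cirrhosis): value is a count of indexed literature references reporting cirrhosis confirmed by histopathology.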
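Throughout, for Hepatotoxicity (cytolytic): human cytolytic liver injury, shown by histopathology or by a ratio above 5 of peak ALT or AST elevation to alkaline phosphatase elevation, value counts indexed references.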
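Throughout, for Hepatotoxicity (granulomatous hepatitis): value is a count of indexed literature references reporting granulomatous liver disease confirmed by histopathology.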
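Throughout, for Hepatotoxicity (malignant tumour): malignant tumour confirmed by histopathology, value gives the count of indexed literature references reporting it.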
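Throughout, for Hepatotoxicity (severe hepatitis): human clinical data: severe hepatitis, meaning potentially life-threatening liver failure or clinically observed cases, the value counts how many indexed literature references report it.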
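Throughout, for Hepatotoxicity (steatosis): steatosis confirmed by histopathology, value is the count of indexed references.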

In the case of `N[C@@H]1CON=C1O` [CYCLOSERINE], the “Hepatotoxicity (cirrhosis)” value in data set [1] was 0. Also, in [2], the “Hepatotoxicity (severe hepatitis)” value was 1. Further, the “Hepatotoxicity (moderate)” value was 3 in data set [3] and 13% in data set [7]. Also, the “Hepatotoxicity (chronic liver disease)” value in data set [4] was 0. The “Hepatotoxicity (steatosis)” value in [5] was determined as 0. Besides, the “Hepatotoxicity (choleostasis)” value in data set [6] is given as 0. In addition, the “Hepatotoxicity (benign tumour)” value in data set [8] worked out at 0. The “Hepatotoxicity (association with vascular disease)” value in data set [9] is listed as 0. Also, the “Hepatotoxicity (granulomatous hepatitis)” value in data set [10] stood at 0. The “Hepatotoxicity (acute)” value amounted to 2 in data set [11] and 5.4% in [13]. In addition, in data set [12], the “Hepatotoxicity (time to onset)” value stood at 11 weeks. In addition, in [14], the “Hepatotoxicity (cytolytic)” value was found to be 2. Moreover, the “Hepatotoxicity (malignant tumour)” value in data set [15] came to 0.

In the case of `Cc1c(O)c(=O)ccn1C` [DEFERIPRONE], in [1], the “Hepatotoxicity (cirrhosis)” value is 0. In data set [2], the “Hepatotoxicity (severe hepatitis)” value turned out to be 0. Besides, the “Hepatotoxicity (moderate)” value was 8 in [3] and 59.5% in data set [7]. Also, the “Hepatotoxicity (chronic liver disease)” value in data set [4] is 0. In data set [5], the “Hepatotoxicity (steatosis)” value was determined as 0. For the same compound, the “Hepatotoxicity (choleostasis)” value in data set [6] was 0. Moreover, in [8], the “Hepatotoxicity (benign tumour)” value was found to be 0. Also, the “Hepatotoxicity (association with vascular disease)” value in [9] turned out to be 0. Besides, the “Hepatotoxicity (granulomatous hepatitis)” value in [10] amounted to 0. Further, the results for the “Hepatotoxicity (acute)” value in data set [11] and in [13] were 1 and 1.2%, respectively. Further, the “Hepatotoxicity (time to onset)” value in [12] is recorded as 3 months. In addition, the “Hepatotoxicity (cytolytic)” value in data set [14] is on record as 1. Besides, the “Hepatotoxicity (malignant tumour)” value in data set [15] amounted to 0.

Consider `CC(=O)N(O)CCCCCNC(=O)CCC(=O)N(O)CCCCCNC(=O)CCC(=O)N(O)CCCCCN` [DEFEROXAMINE], for which, in data set [1], the “Hepatotoxicity (cirrhosis)” value came to 0. The “Hepatotoxicity (severe hepatitis)” value in data set [2] stood at 1. The “Hepatotoxicity (moderate)” value amounted to 1 in data set [3] and 28% in data set [7]. Besides, in data set [4], the “Hepatotoxicity (chronic liver disease)” value came to 0. Also, the “Hepatotoxicity (steatosis)” value in [5] was 0. Further, the “Hepatotoxicity (choleostasis)” value in data set [6] came to 0. The “Hepatotoxicity (benign tumour)” value in data set [8] was 0. Moreover, the “Hepatotoxicity (association with vascular disease)” value in data set [9] is reported as 0. Besides, the “Hepatotoxicity (granulomatous hepatitis)” value in data set [10] amounted to 0. The “Hepatotoxicity (acute)” value came to 1 in data set [11] and 0% in [13]. In data set [12], the “Hepatotoxicity (time to onset)” value amounted to 6 weeks. For the same compound, the “Hepatotoxicity (cytolytic)” value in [14] is given as 1. Further, the “Hepatotoxicity (malignant tumour)” value in data set [15] was 0.

Take `CNCCON=c1c2ccccc2ccc2ccccc12` [DEMEXIPTILINE]: the “Hepatotoxicity (cirrhosis)” value in data set [1] is 0. In [2], the “Hepatotoxicity (severe hepatitis)” value is recorded as 0. In addition, the results for the “Hepatotoxicity (moderate)” value in [3] and in [7] were 0 and 0%, respectively. In data set [4], the “Hepatotoxicity (chronic liver disease)” value stood at 0. Besides, the “Hepatotoxicity (steatosis)” value in data set [5] came out at 0. In addition, the “Hepatotoxicity (choleostasis)” value in data set [6] turned out to be 1. The “Hepatotoxicity (benign tumour)” value in data set [8] was found to be 0. The “Hepatotoxicity (association with vascular disease)” value in [9] amounted to 0. For the same compound, the “Hepatotoxicity (granulomatous hepatitis)” value in [10] was determined as 0. The “Hepatotoxicity (acute)” value worked out at 1 in [11] and 0% in data set [13]. Moreover, in data set [12], the “Hepatotoxicity (time to onset)” value is recorded as 6 weeks. For the same compound, the “Hepatotoxicity (cytolytic)” value in data set [14] is on record as 1. Besides, the “Hepatotoxicity (malignant tumour)” value in data set [15] was determined as 0.

Turning to `NC(=O)CC[C@@H]1NC(=O)[C@H](Cc2ccccc2)NC(=O)[C@H](Cc2ccc(O)cc2)NC(=O)CCSSC[C@@H](C(=O)N2CCC[C@H]2C(=O)N[C@H](CCCN=C(N)N)C(=O)NCC(N)=O)NC(=O)[C@H](CC(N)=O)NC1=O` [DESMOPRESSIN], the “Hepatotoxicity (cirrhosis)” value in data set [1] is listed as 0. The “Hepatotoxicity (severe hepatitis)” value in [2] is reported as 0. Besides, the “Hepatotoxicity (moderate)” value in [3] was 2; in data set [7] it was 20%. For the same compound, in data set [4], the “Hepatotoxicity (chronic liver disease)” value turned out to be 0. Also, the “Hepatotoxicity (steatosis)” value in data set [5] is recorded as 0. The “Hepatotoxicity (choleostasis)” value in data set [6] is 0. Besides, the “Hepatotoxicity (benign tumour)” value in data set [8] turned out to be 0. Besides, the “Hepatotoxicity (association with vascular disease)” value in data set [9] was 0. In addition, the “Hepatotoxicity (granulomatous hepatitis)” value in [10] was 0. The “Hepatotoxicity (acute)” value was found to be 0 in data set [11] and 0% in data set [13]. Also, the “Hepatotoxicity (time to onset)” value in data set [12] amounted to 5 days - 4 weeks. The “Hepatotoxicity (cytolytic)” value in data set [14] turned out to be 0. Besides, the “Hepatotoxicity (malignant tumour)” value in data set [15] came to 0.

Turning to `CCN[C@@H](C)Cc1cccc(C(F)(F)F)c1` [DEXFENFLURAMINE], the “Hepatotoxicity (cirrhosis)” value in data set [1] amounted to 1. Also, the “Hepatotoxicity (severe hepatitis)” value in data set [2] is given as 0. For the same compound, the figures for the “Hepatotoxicity (moderate)” value in [3] and in data set [7] were 0 and 0%, respectively. Further, the “Hepatotoxicity (chronic liver disease)” value in [4] is 0. The “Hepatotoxicity (steatosis)” value in [5] came to 0. In addition, the “Hepatotoxicity (choleostasis)” value in data set [6] amounted to 0. The “Hepatotoxicity (benign tumour)” value in [8] turned out to be 0. Further, the “Hepatotoxicity (association with vascular disease)” value in [9] worked out at 0. In addition, in [10], the “Hepatotoxicity (granulomatous hepatitis)” value came out at 0. The “Hepatotoxicity (acute)” value in [11] amounted to 0; in data set [13], 0%. The “Hepatotoxicity (time to onset)” value in data set [12] amounted to 4 years. For the same compound, the “Hepatotoxicity (cytolytic)” value in [14] is 0. Also, in [15], the “Hepatotoxicity (malignant tumour)” value is reported as 0.

Regarding `O=[As](O)(O)c1ccc(NCCNc2ccc([As](=O)(O)O)cc2)cc1` [DIFETARSONE], the “Hepatotoxicity (cirrhosis)” value in data set [1] turned out to be 0. Further, the “Hepatotoxicity (severe hepatitis)” value in [2] stood at 0. Moreover, the “Hepatotoxicity (moderate)” value in [3] came out at 1; in data set [7], 6%. Further, the “Hepatotoxicity (chronic liver disease)” value in data set [4] is given as 0. Also, in [5], the “Hepatotoxicity (steatosis)” value was 0. Further, the “Hepatotoxicity (choleostasis)” value in data set [6] is reported as 2. For the same compound, in data set [8], the “Hepatotoxicity (benign tumour)” value is recorded as 0. For the same compound, the “Hepatotoxicity (association with vascular disease)” value in [9] is on record as 0. For the same compound, in data set [10], the “Hepatotoxicity (granulomatous hepatitis)” value was found to be 0. The “Hepatotoxicity (acute)” value in [11] stood at 2; in [13], 0%. Also, the “Hepatotoxicity (time to onset)” value in [12] amounted to 2 days - 3 weeks. Also, the “Hepatotoxicity (cytolytic)” value in [14] is listed as 2. The “Hepatotoxicity (malignant tumour)” value in data set [15] was determined as 0.

Take `CC(=O)O[C@@]12CO[C@@H]1C[C@H](O)[C@@]1(C)C(=O)[C@H](O)C3=C(C)[C@@H](OC(=O)[C@H](O)[C@@H](NC(=O)OC(C)(C)C)c4ccccc4)C[C@@](O)([C@@H](OC(=O)c4ccccc4)[C@H]21)C3(C)C.O.O.O` [DOCETAXEL]: the “Hepatotoxicity (cirrhosis)” value in data set [1] amounted to 0. Also, the “Hepatotoxicity (severe hepatitis)” value in data set [2] came to 1. Besides, the “Hepatotoxicity (moderate)” value in [3] is listed as 3; in data set [7], 20%. The “Hepatotoxicity (chronic liver disease)” value in data set [4] amounted to 0. In addition, the “Hepatotoxicity (steatosis)” value in data set [5] is listed as 0. In [6], the “Hepatotoxicity (choleostasis)” value is recorded as 1. In addition, the “Hepatotoxicity (benign tumour)” value in data set [8] was determined as 0. Moreover, the “Hepatotoxicity (association with vascular disease)” value in data set [9] amounted to 0. In data set [10], the “Hepatotoxicity (granulomatous hepatitis)” value was 0. The figures for the “Hepatotoxicity (acute)” value in [11] and in data set [13] were 4 and 14.3%, respectively. Also, the “Hepatotoxicity (time to onset)” value in data set [12] is listed as 3 days - 8 days. The “Hepatotoxicity (cytolytic)” value in data set [14] is given as 2. Also, the “Hepatotoxicity (malignant tumour)” value in [15] came to 0.

In the case of `O=c1[nH]c2ccccc2n1CCCN1CCC(n2c(=O)[nH]c3cc(Cl)ccc32)CC1` [DOMPERIDONE], in data set [1], the “Hepatotoxicity (cirrhosis)” value came out at 0. Also, in data set [2], the “Hepatotoxicity (severe hepatitis)” value amounted to 0. In addition, the “Hepatotoxicity (moderate)” value is on record as 0 in data set [3] and 0% in data set [7]. Also, the “Hepatotoxicity (chronic liver disease)” value in [4] worked out at 0. Also, the “Hepatotoxicity (steatosis)” value in data set [5] came out at 0. Besides, in data set [6], the “Hepatotoxicity (choleostasis)” value stood at 0. Further, in data set [8], the “Hepatotoxicity (benign tumour)” value is 0. In data set [9], the “Hepatotoxicity (association with vascular disease)” value was 0. Moreover, in data set [10], the “Hepatotoxicity (granulomatous hepatitis)” value is 0. The figures for the “Hepatotoxicity (acute)” value in data set [11] and in data set [13] were 1 and 0%, respectively. In addition, the “Hepatotoxicity (time to onset)” value in data set [12] was less than 1 week. For the same compound, the “Hepatotoxicity (cytolytic)” value in data set [14] came to 1. For the same compound, in data set [15], the “Hepatotoxicity (malignant tumour)” value is reported as 0.

Consider `CN1c2c(oc(=O)n(-c3ccccn3)c2=O)-c2ccccc2S1(=O)=O` [DROXICAM], for which the “Hepatotoxicity (cirrhosis)” value in [1] amounted to 0. Further, the “Hepatotoxicity (severe hepatitis)” value in data set [2] is 0. The figures for the “Hepatotoxicity (moderate)” value in data set [3] and in data set [7] were 0 and 0%, respectively. In addition, in [4], the “Hepatotoxicity (chronic liver disease)” value was 0. For the same compound, the “Hepatotoxicity (steatosis)” value in data set [5] worked out at 0. Further, the “Hepatotoxicity (choleostasis)” value in data set [6] was found to be 6. The “Hepatotoxicity (benign tumour)” value in [8] turned out to be 0. Moreover, the “Hepatotoxicity (association with vascular disease)” value in [9] is reported as 0. Also, the “Hepatotoxicity (granulomatous hepatitis)” value in [10] worked out at 1. The figures for the “Hepatotoxicity (acute)” value in data set [11] and in data set [13] were 7 and more than 0%, respectively. In addition, the “Hepatotoxicity (time to onset)” value in data set [12] is on record as 10 days - 7 weeks. Besides, the “Hepatotoxicity (cytolytic)” value in data set [14] is 4. In data set [15], the “Hepatotoxicity (malignant tumour)” value is given as 0.
